Assay results published in ChEMBL document CHEMBL5046228 (Eur J Med Chem, 2022).

Tests used:
[1] = tested on: NCI-H1975; test: Induction of cell cycle arrest in human NCI-H1975 cells assessed as accumulation at G0/G1 phase at 0.02 uM after 36 hrs by PI staining based flow cytometry analysis (reference value: 24.2%); format: functional
[2] = tested on: NCI-H1299; test: Induction of apoptosis in human NCI-H1299 cells assessed as increase in early apoptotic cells at 0.1 uM after 36 hrs by annexin-V-FITC/PI staining based flow cytometric analysis (reference value: 0.79%); format: functional

SMILES: C#CCN(C)CCN(C)c1cc(OC)c(Nc2nccc(Nc3cn(C)c4ccccc34)n2)cc1NC(=O)C=C
- Activity [1]: 22.5%
- Activity [2]: 1.06%
